Six compounds from PMC8151276, “An Integrated Approach toward NanoBRET Tracers for Analysis of GPCR Ligand Engagement” (Molecules, 2021) can be followed below.

Holding throughout (format): binding
Test [1] has as its target T1, MC5R (Homo sapiens, UniProt P33032).
T1 construct: purchased Promega (in-house HiBiT-GPCR construct library, NanoBRET)
Nature of the test: NanoBRET screen HiBiT-MC5R in HEK293. The method, then: (§1) Each tracer candidate was screened across the entire library of HiBiT-GPCR constructs using NanoBRET as the detection modality. As depicted in Figure 4A, the specificity of interactions was evaluated through decrease in BRET due to competitive displacement of a bound tracer by excess parental compound. Each tracer was analyzed for binding to each HiBiT-GPCR fusion in the absence and in the presence of competing parental compound. Briefly, HEK293 cells were transfected with HiBiT-GPCR constructs diluted into promoterless DNA to reduce expression and maximize translocation to the cell surface. Each tracer candidate was then screened at concentrations of 1 μM and 0.1 μM across cells expressing these fusions. Cells were treated for 1.5 h with tracer either alone or in the presence of 20 μM competing parental compound (i.e., control). BRET was measured upon addition of purified LgBiT and subsequent complementation with HiBiT genetically fused to a GPCR. The specificity of interactions was assessed through a decrease in BRET signal due to competitive displacement of the bound tracer. To further gauge the robustness of these interactions, the fold response over the control (i.e., BRETtracer/BRETcontrol) was calculated. We chose a 1.5-fold response, which translates to ≥7-fold signal over noise as the minimal threshold required to score an interaction as positive.
(§2) HiBiT-GPCR DNA constructs were diluted in 10 mM Tris pH 8 to a final concentration of 0.01 μg/μL, arrayed in 96-well plates and stored at −20 °C. For transfection, HEK293 cells were suspended in Opti-MEM (without phenol red) supplemented with 2% fetal bovine serum (Seradigm) and 100 units/mL penicillin–streptomycin (Gibco) at a final concentration of 220,000 cells/mL and dispensed into white 96-well plates at 90 μL/well. Subsequent transfections and screens were carried using an Agilent Bravo Automated Liquid Handling Platform. First, the 96-well HiBiT DNA arrays were diluted 25-fold in Opti-MEM (without serum or phenol red) to a final concentration of 0.0004 μg/μL and 20 μL of the diluted DNAs were transferred into new 96-well plates. Next, promoterless carrier DNA (1 μg/μL) was diluted 25-fold (0.04 μg/μL) and then dispensed into the diluted arrays at 20 μL/well. Following brief mixing, Viafect transfection reagent (Promega) diluted 16-fold into Opti-MEM was dispensed into the plates at 40 μL/well. After mixing by pipetting, plates were incubated for 10 min on the pipetting station deck. The DNA-transfection reagent complexes were then added to plates containing cells. To facilitate the screen, 10 μL of DNA-transfection reagent complexes were added in duplicates to the top 4 and bottom 4 rows, resulting in two identical 48-well arrays per plate. Plates with transfected cells were incubated for 18–20 h at 37 °C/5% CO2. A screen of each tracer across the entire library using two different concentrations requires duplicate plates of transfected cells. Depending on the number of tracers being screened, transfections can be scaled up using the same ratios. The next day, for each tracer, four 20× screening solutions in tracer dilution buffer (Promega) were prepared: two duplicates at final concentration of 20 μM and two duplicates at a final concentration of 2 μM. […] The four resulting solutions were diluted 4-fold in Opti-MEM without serum or phenol red to generate 5× solutions (5 µM and 0.5 µM tracer +/− 100 μM competing compound). To screen the library, a BioTek MultiFlo FX liquid dispenser was used to dispense 22.5 µL of tracer solution to the top 4 rows and 22.5 µL tracer + competing compound solution to the 4 bottom rows. Plates were briefly mixed on an orbital shaker and incubated for 1.5 h at room temperature. […] Plates were briefly mixed on an orbital shaker and incubated for 15 min to allow complementation.

Test [2] addresses T2, HTR6 (Homo sapiens, UniProt P50406).
T2 construct: purchased Promega (in-house HiBiT-GPCR construct library, NanoBRET)
Briefly: NanoBRET screen HiBiT-HTR6 in HEK293. The method, then:
as §1, §2

Test [3] concerns the target T3, MTNR1A (Homo sapiens, UniProt P48039).
T3 construct: purchased Promega (in-house HiBiT-GPCR construct library, NanoBRET)
Nature of the test: NanoBRET screen HiBiT-MTNR1A in HEK293. Conditions: MTNR1A. The protocol:
as §1, §2
(In BRET a luciferase serves as donor, and the signal depends on an acceptor being close.)

Each structure is given as a SMILES string.

T3 sequence (P48039 whole entry): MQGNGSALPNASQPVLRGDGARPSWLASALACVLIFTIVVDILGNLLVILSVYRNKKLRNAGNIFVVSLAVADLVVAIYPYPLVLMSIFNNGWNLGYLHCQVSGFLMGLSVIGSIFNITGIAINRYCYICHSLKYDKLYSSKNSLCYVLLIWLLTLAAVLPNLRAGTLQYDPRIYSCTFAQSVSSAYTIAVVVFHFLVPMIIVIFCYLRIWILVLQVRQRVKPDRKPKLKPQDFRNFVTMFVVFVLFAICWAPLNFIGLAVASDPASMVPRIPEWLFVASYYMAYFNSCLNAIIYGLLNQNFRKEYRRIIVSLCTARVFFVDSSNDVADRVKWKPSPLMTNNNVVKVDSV
T2 sequence (P50406 whole entry): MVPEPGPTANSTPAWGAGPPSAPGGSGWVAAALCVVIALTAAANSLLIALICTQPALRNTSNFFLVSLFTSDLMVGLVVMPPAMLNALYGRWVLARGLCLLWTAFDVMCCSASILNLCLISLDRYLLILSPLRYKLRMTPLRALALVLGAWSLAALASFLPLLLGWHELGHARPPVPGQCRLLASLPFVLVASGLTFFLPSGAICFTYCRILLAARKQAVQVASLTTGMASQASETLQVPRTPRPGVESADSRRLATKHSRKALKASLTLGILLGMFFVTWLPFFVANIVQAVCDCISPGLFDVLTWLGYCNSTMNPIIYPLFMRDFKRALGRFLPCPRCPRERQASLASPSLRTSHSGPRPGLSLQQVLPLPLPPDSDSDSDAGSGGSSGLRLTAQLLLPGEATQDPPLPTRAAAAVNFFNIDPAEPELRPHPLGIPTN
T1 sequence (P33032 whole entry): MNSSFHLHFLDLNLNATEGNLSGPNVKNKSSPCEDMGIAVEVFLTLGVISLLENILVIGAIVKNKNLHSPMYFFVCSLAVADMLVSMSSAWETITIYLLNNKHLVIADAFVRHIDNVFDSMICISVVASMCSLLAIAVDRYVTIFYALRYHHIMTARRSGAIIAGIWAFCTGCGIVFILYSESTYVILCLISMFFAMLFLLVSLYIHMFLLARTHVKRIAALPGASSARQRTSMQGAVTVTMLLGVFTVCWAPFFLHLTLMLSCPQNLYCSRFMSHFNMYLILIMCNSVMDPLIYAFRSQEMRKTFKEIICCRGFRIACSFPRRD

With `O=C(CCc1ccc2n1[B-](F)(F)[N+]1=C(c3ccc[nH]3)C=CC1=C2)NCCOCCOCCNC(=O)OCCOCCN1CCN(C2=Nc3ccccc3Sc3ccccc32)CC1` [Quetiapine-a-2-NB590], the “NanoBRET Fold Response” value was found to be 0.97 in test [1] (MC5R, tracer 0.1μM); 1.09 in test [1] (MC5R, tracer 1μM); 0.90 in test [2] (HTR6, tracer 0.1μM); 0.98 in test [2] (HTR6, tracer 1μM); 1.00 in test [3] (tracer 0.1μM); 1.05 in test [3] (tracer 1μM).
Turning to `CC(C)N(CC[C@H](c1ccccc1)c1cc(CCNC(=O)CCOCCOCCOCCOCCNC(=O)CCc2ccc3n2[B-](F)(F)[N+]2=C(c4ccc[nH]4)C=CC2=C3)ccc1O)C(C)C` [Tolterodine-2-NB590], the “NanoBRET Fold Response” value in test [1] (MC5R, tracer 1μM) is 0.91; in test [2] (HTR6, tracer 0.1μM) it was 0.89; in test [2] (HTR6, tracer 1μM), 0.96; in test [3] (tracer 0.1μM) it was 1.07; in test [3] (tracer 1μM), 0.79.
`Cc1cc2c(s1)Nc1ccccc1N=C2N1CCN(CCCNC(=O)CCOCCOCCOCCOCCNC(=O)CCc2ccc3n2[B-](F)(F)[N+]2=C(c4ccc[nH]4)C=CC2=C3)CC1` [Olanzapine-a-2-NB590]: the “NanoBRET Fold Response” value in test [1] (MC5R, tracer 0.1μM) came out at 0.99; in test [1] (MC5R, tracer 1μM), 1.04; in test [2] (HTR6, tracer 0.1μM), 1.09; in test [2] (HTR6, tracer 1μM), 1.15; in test [3] (tracer 0.1μM), 1.01; in test [3] (tracer 1μM), 1.07.
Turning to `N#CN=C(NCCCOc1cccc(CN2CCCCC2)c1)NCCNC(=O)CCOCCOCCOCCOCCNC(=O)CCc1ccc2n1[B-](F)(F)[N+]1=C(c3ccc[nH]3)C=CC1=C2` [Aminopotentidine-2-NB590], the “NanoBRET Fold Response” value came to 1.01 in test [1] (MC5R, tracer 0.1μM); 0.94 in test [1] (MC5R, tracer 1μM); 0.99 in test [2] (HTR6, tracer 0.1μM); 1.03 in test [2] (HTR6, tracer 1μM); 1.00 in test [3] (tracer 0.1μM); 1.00 in test [3] (tracer 1μM).
On to `Cc1nc2n(c(=O)c1CCN1CCC(c3noc4cc(F)ccc34)CC1)CCCC2OC(=O)NCCOCCOCCOCCOCCNC(=O)CCc1ccc2n1[B-](F)(F)[N+]1=C(c3ccc[nH]3)C=CC1=C2` (centres unmarked) [Risperidone-2-NB590], for which the “NanoBRET Fold Response” value was determined as 1.02 in test [1] (MC5R, tracer 0.1μM); 1.02 in test [1] (MC5R, tracer 1μM); 1.00 in test [2] (HTR6, tracer 0.1μM); 1.34 in test [2] (HTR6, tracer 1μM); 0.97 in test [3] (tracer 0.1μM); 0.93 in test [3] (tracer 1μM).
As for `CN(C)CCC=C1c2ccccc2CCc2ccc(C(=O)NCCNC(=O)CCOCCOCCOCCOCCNC(=O)CCc3ccc4n3[B-](F)(F)[N+]3=C(c5ccc[nH]5)C=CC3=C4)cc21` [Amitriptyline-b-2-NB590], the “NanoBRET Fold Response” value in test [1] (tracer at 0.1μM) was found to be 1.02; in test [1] (tracer at 1μM), 1.00; in test [2] (tracer at 0.1μM, listed as amitriptyline-b-2-NB590), 1.11; in test [2] (tracer at 1μM, listed as amitriptyline-b-2-NB590), 1.11; in test [3] (tracer 0.1μM) it was 0.96; in test [3] (tracer 1μM) it was 0.98.
